Measurements reported in ChEMBL document CHEMBL2146418, “Synthesis and comparison of antiplasmodial activity of (+), (-) and racemic 7-chloro-4-(N-lupinyl)aminoquinoline” (Bioorg Med Chem, 2012).

Legend:
[1] = Therapeutic index, ratio of IC50 for human HMEC1 cells to IC50 for Plasmodium falciparum; type: cell-based; settings: HMEC1 cells versus Plasmodium falciparum, read-out: Ratio IC50
[2] = Cytotoxicity against human HDF cells after 72 hrs by MTT assay; type: cell-based
[3] = Cytotoxicity against human HMEC1 cells after 72 hrs by MTT assay; type: cell-based; settings: HMEC-1, 72 h
[4] = tested on: Plasmodium falciparum; test: Antiplasmodial activity against chloroquine-resistant Plasmodium falciparum isolate Kenya after 72 hrs by lactate dehydrogenase assay; type: functional, organism-based
[5] = tested on: Plasmodium falciparum; test: Antiplasmodial activity against chloroquine-resistant Plasmodium falciparum W2 infected in human RBC assessed as inhibition of parasite growth after 72 hrs by lactate dehydrogenase assay; type: functional, organism-based; settings: W2, 72 h
[6] = tested on: Plasmodium falciparum; test: Antiplasmodial activity against chloroquine-sensitive Plasmodium falciparum 3D7 infected in human RBC assessed as inhibition of parasite growth after 72 hrs by lactate dehydrogenase assay; type: functional, organism-based; settings: 3D7, 72 h
[7] = tested on: Plasmodium falciparum; test: Antiplasmodial activity against chloroquine-sensitive Plasmodium falciparum D10 infected in human RBC assessed as inhibition of parasite growth after 72 hrs by lactate dehydrogenase assay; type: functional, organism-based; settings: D10, 72 h

Compound | selectivity ratio [1] | IC50 [2] [nM] | IC50 [3] [nM] | IC50 [4] [nM] | IC50 [5] [nM] | IC50 [6] [nM] | IC50 [7] [nM]
Clc1ccc2c(NC[C@@H]3CCCN4CCCC[C@H]34)ccnc2c1 | > 1000 | 22600 | > 49000 | 29.2 | 53.7 | 28.1 | 24
Clc1ccc2c(NC[C@H]3CCCN4CCCC[C@@H]34)ccnc2c1 | > 1000 | 26900 | > 60000 | 18.9 | 35.8 | 21.9 | 17.5
Clc1ccc2c(NCC3CCCN4CCCCC34)ccnc2c1 (racemic) | > 1000 | 24600 | > 60000 | 19.4 | 35.4 | 18.6 | 16.1
CCN(CC)CCCC(C)Nc1ccnc2cc(Cl)ccc12 (stereo not drawn) [CHLOROQUINE] | – | > 38000 | > 38000 | – | – | – | –
